From EP4772530A1, “PEPTIDE TARGETING SOMATOSTATIN RECEPTOR, DRUG CONJUGATE AND USE THEREOF” (Mainline Biosciences (Shanghai) Co., Ltd., priority 2023, dated 2025)

Test system: HL-60
Assay: Cell killing in HL-60 by CCK-8
Format: cell-based
Conditions: HL-60, 48 h
Method: • a) Cell line: HL-60 • b) Procedure • (1) Normally cultured HL-60 cells in the logarithmic growth phase were centrifuged at 800 rpm for 5 min to discard the supernatant. Approximately 3 mL of normal medium was added to resuspend the cell pellet by gently pipetting up and down. The cells were then counted using a cell counter and inoculated onto a 96-well plate. • (2) Sample solutions with different concentration gradients were prepared. Approximately 10 µL of each solution was added to the 96-well plate, with 3 to 6 replicate wells for each concentration, and incubated in a 5% CO2 incubator at 37°C for 48 h. • (3) CCK-8 was equilibrated to room temperature before use, and 10 µL of CCK-8 solution was added to each well. • (4) The plate was incubated in the incubator for 0.5-4 h in the dark, with the incubation time depending on experimental conditions such as cell type and density. • (5) The absorbance was measured at 450 nm using a microplate reader. • c) Data analysis Cell viability = [(As−Ab)/(Ac−Ab)] × 100% [formula] Inhibition% = [(Ac−As)/(Ac−Ab)] × 100% [formula] • As: absorbance of sample well (containing cells + medium + CCK-8 solution + drug solution); • Ac: absorbance of control well (containing cells + medium + CCK-8 solution); • Ab: absorbance of blank well (containing medium + CCK-8 solution); • The results were processed and analyzed using Excel and Graphpad Prism to obtain the IC50. Table 4: Test Results of Cell Killing in HL-60 for 48 h

CC[C@H](C)[C@@H]([C@@H](CC(=O)N1CCC[C@H]1[C@H](OC)[C@@H](C)C(=O)N[C@H](C)[C@@H](O)c1ccccc1)OC)N(C)C(=O)[C@@H](NC(=O)[C@H](C(C)C)N(C)C(=O)OCc1ccc(NC(=O)[C@H](CCCNC(N)=O)NC(=O)[C@@H](NC(=O)CCCCCN2C(=O)CC(SC[C@H](NC(C)=O)C(=O)NCCOCCOCC(=O)N[C@@H](CCCNC(=N)N)C(=O)N[C@@H](CCCNC(=N)N)C(=O)N[C@@H](CC(C)C)C(=O)N[C@@H](Cc3ccccc3)C(=O)N[C@H]3CSSC[C@@H](C(=O)N[C@H](C(=O)N[C@@H](Cc4c[nH]c5ccccc45)C(=O)N[C@@H](CCCNC(=N)N)C(=O)N[C@@H](CC(=O)O)C(N)=O)[C@@H](C)O)NC(=O)[C@H]([C@@H](C)O)NC(=O)[C@H](CCCCN)NC(=O)[C@@H](Cc4c[nH]c5ccccc45)NC(=O)[C@H](Cc4ccc(O)cc4)NC3=O)C2=O)C(C)C)cc1)C(C)C (single isomer, unassigned) [Example 10, Ac-Cys(MC-Val-Cit-PABC-MMAE)-AEEA-Arg-Arg-Leu-Phe-[Cys-Tyr-D-Trp-Lys-Thr-Cys]-Thr-Trp-Arg-Asp-NH2]
Bottom (Inhibition at Lowest Point): -2.25
IC50: 187 nM
Top (Inhibition at Highest Point): 90.08
